Tests used:
[1] = molecular target: human Gal-1 (hGal-1) (Homo sapiens, UniProt P09382); assay: Competitive binding assay: biotinylated hGal-1 to microplate-adsorbed asialofetuin (ASF); settings: Activities on hGal-1; binding to ASF-coated plates, 3 hours at 4° C.; mean values; read-out: Gal-1 IC50
Method: Evaluation of Compound Inhibitory Activity (IC50) The inhibitory activity of compounds is determined in competitive binding assays. […] Alternatively, and preferably, a human Gal-1 version in which all six cysteines are substituted by serines may be used. Briefly, compounds are serially diluted in DMSO (working dilutions). […] Plates are incubated for 3 hours at 4° C., then washed with cold assay buffer (3×50 uL), incubated for 1 hour with 25 μL/well of a streptavidin-peroxidase solution (diluted in assay buffer to 80 ng/mL) at 4° C., followed by further washing steps with assay buffer (3×50 uL). Finally, 25 µL/well of ABTS substrate is added. […] The calculated IC50 values may fluctuate depending on the daily assay performance. Fluctuations of this kind are known to those skilled in the art. IC50 values from several measurements are given as mean values.

[2] = molecular target: human Gal-3 (hGal-3) (Homo sapiens (Human), UniProt P17931); assay: Competitive binding assay: biotinylated hGal-3 to microplate-adsorbed asialofetuin (ASF); settings: Activity on hGal-3; binding to ASF-coated plates, 3 hours at 4° C.; mean values
human Gal-3 (hGal-3), sequence (P17931 whole entry): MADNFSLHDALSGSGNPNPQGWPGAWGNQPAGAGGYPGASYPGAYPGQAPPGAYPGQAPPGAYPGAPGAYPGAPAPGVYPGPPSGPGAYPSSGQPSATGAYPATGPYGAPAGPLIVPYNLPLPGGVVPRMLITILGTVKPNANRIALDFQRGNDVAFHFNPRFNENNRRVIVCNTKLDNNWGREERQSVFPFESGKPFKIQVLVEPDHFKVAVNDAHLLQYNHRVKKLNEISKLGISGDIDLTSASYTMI
Method: Evaluation of Compound Inhibitory Activity (IC50)
The inhibitory activity of compounds is determined in competitive binding assays. This spectrophotometric assay measures the binding of biotinylated human Gal-3 (hGal-3) or human Gal-1 (hGal-1), respectively, to a microplate-adsorbed glycoprotein, asialofetuin (ASF) (Proc Natl Acad Sci USA. 2013 Mar. 26; 110(13):5052-7.). Alternatively, and preferably, a human Gal-1 version in which all six cysteines are substituted by serines may be used.
Briefly, compounds are serially diluted in DMSO (working dilutions). ASF-coated 384 well plates are supplemented with 22.8 μL/well of biotinylated hGal-3 or hGal-1 in assay buffer (i.e. 300-1000 ng/mL biotinylated hGal-3 or hGal-1) to which 1.2 µL of compound working dilutions are added and mixed.
Plates are incubated for 3 hours at 4° C., then washed with cold assay buffer (3×50 uL), incubated for 1 hour with 25 μL/well of a streptavidin-peroxidase solution (diluted in assay buffer to 80 ng/mL) at 4° C., followed by further washing steps with assay buffer (3×50 uL). Finally, 25 µL/well of ABTS substrate is added.
The calculated IC50 values may fluctuate depending on the daily assay performance. Fluctuations of this kind are known to those skilled in the art. IC50 values from several measurements are given as mean values.

human Gal-1 (hGal-1), sequence (P09382 2-135 limits assumed): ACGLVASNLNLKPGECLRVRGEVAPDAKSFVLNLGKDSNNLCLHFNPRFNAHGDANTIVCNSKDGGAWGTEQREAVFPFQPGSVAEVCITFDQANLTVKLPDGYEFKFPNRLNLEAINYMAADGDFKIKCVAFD

| Structure (SMILES) | IC50 [1] | IC50 [2] |
| --- | --- | --- |
| CO[C@@H]1[C@@H](n2cc(-c3cc(F)c(F)c(F)c3)nn2)[C@@H](O)[C@@H](CO)O[C@@H]1CC1=NO[C@]2(CC[C@@H](NC(=O)OC(C)(C)C)CC2)C1 [Example 1.16, tert-butyl ((5s,8S)-3-(((2R,3R,4S,5R,6R)-5-hydroxy-6-(hydroxymethyl)-3-methoxy-4-(4-(3,4,5-trifluorophenyl)-1H-1,2,3-triazol-1-yl)tetrahydro-2H-pyran-2-yl)methyl)-1-oxa-2-azaspiro[4.5]dec-2-en-8-yl)carbamate] | 2300 nM | 340 nM |
| CO[C@@H]1[C@@H](n2cc(-c3ccc(Br)c(F)c3F)nn2)[C@@H](O)[C@@H](CO)O[C@@H]1CC1=NOC2(CCCCC2)C1 [Example 1.17, (2R,3R,4S,5R,6R)-6-((1-oxa-2-azaspiro[4.5]dec-2-en-3-yl)methyl)-4-(4-(4-bromo-2,3-difluorophenyl)-1H-1,2,3-triazol-1-yl)-2-(hydroxymethyl)-5-methoxytetrahydro-2H-pyran-3-ol] | 6000 nM | 160 nM |
| CO[C@@H]1[C@@H](n2cc(-c3cc(F)c(Cl)c(F)c3)nn2)[C@@H](O)[C@@H](CO)O[C@@H]1CC1=NOC2(CCCCC2)C1 [Example 1.18, (2R,3R,4S,5R,6R)-6-((1-oxa-2-azaspiro[4.5]dec-2-en-3-yl)methyl)-4-(4-(4-chloro-3,5-difluorophenyl)-1H-1,2,3-triazol-1-yl)-2-(hydroxymethyl)-5-methoxytetrahydro-2H-pyran-3-ol] | 10300 nM | 180 nM |
| CO[C@@H]1[C@@H](n2cc(-c3cc(F)cc(Cl)c3)nn2)[C@@H](O)[C@@H](CO)O[C@@H]1CC1=NOC2(CCCCC2)C1 [Example 1.19, (2R,3R,4S,5R,6R)-6-((1-oxa-2-azaspiro[4.5]dec-2-en-3-yl)methyl)-4-(4-(3-chloro-5-fluorophenyl)-1H-1,2,3-triazol-1-yl)-2-(hydroxymethyl)-5-methoxytetrahydro-2H-pyran-3-ol] | 4200 nM | 680 nM |
| CO[C@@H]1[C@@H](n2cc(-c3ccc(C)c(F)c3)nn2)[C@@H](O)[C@@H](CO)O[C@@H]1CC1=NOC2(CCCCC2)C1 [Example 1.20, (2R,3R,4S,5R,6R)-6-((1-oxa-2-azaspiro[4.5]dec-2-en-3-yl)methyl)-4-(4-(3-fluoro-4-methylphenyl)-1H-1,2,3-triazol-1-yl)-2-(hydroxymethyl)-5-methoxytetrahydro-2H-pyran-3-ol] | 5300 nM | 120 nM |
| CO[C@@H]1[C@@H](n2cc(-c3cc(F)c(C)c(F)c3)nn2)[C@@H](O)[C@@H](CO)O[C@@H]1CC1=NOC2(CCCCC2)C1 [Example 1.21, (2R,3R,4S,5R,6R)-6-((1-oxa-2-azaspiro[4.5]dec-2-en-3-yl)methyl)-4-(4-(3,5-difluoro-4-methylphenyl)-1H-1,2,3-triazol-1-yl)-2-(hydroxymethyl)-5-methoxytetrahydro-2H-pyran-3-ol] | 11400 nM | 110 nM |
| CO[C@@H]1[C@@H](n2cc(-c3ccc(Cl)c(F)c3F)nn2)[C@@H](O)[C@@H](CO)O[C@@H]1CC1=NOC2(CCCCC2)C1 [Example 1.22, (2R,3R,4S,5R,6R)-6-((1-oxa-2-azaspiro[4.5]dec-2-en-3-yl)methyl)-4-(4-(4-chloro-2,3-difluorophenyl)-1H-1,2,3-triazol-1-yl)-2-(hydroxymethyl)-5-methoxytetrahydro-2H-pyran-3-ol] | 3700 nM | 76 nM |
| CO[C@@H]1[C@@H](n2cc(-c3cc(F)c(F)c(F)c3)nn2)[C@@H](O)[C@@H](CO)O[C@@H]1CC1=NOC2(CCOCC2)C1 [Example 1.23, (2R,3R,4S,5R,6R)-6-((1,8-dioxa-2-azaspiro[4.5]dec-2-en-3-yl)methyl)-2-(hydroxymethyl)-5-methoxy-4-(4-(3,4,5-trifluorophenyl)-1H-1,2,3-triazol-1-yl)tetrahydro-2H-pyran-3-ol] | 3500 nM | 760 nM |
| CO[C@@H]1[C@@H](n2cc(-c3cc(F)c(F)c(F)c3)nn2)[C@@H](O)[C@@H](CO)O[C@@H]1CC1=NOC2(CCC(F)(F)CC2)C1 [Example 1.24, (2R,3R,4S,5R,6R)-6-((8,8-difluoro-1-oxa-2-azaspiro[4.5]dec-2-en-3-yl)methyl)-2-(hydroxymethyl)-5-methoxy-4-(4-(3,4,5-trifluorophenyl)-1H-1,2,3-triazol-1-yl)tetrahydro-2H-pyran-3-ol] | 4900 nM | 450 nM |
| CO[C@@H]1[C@@H](n2cc(-c3cc(F)c(F)c(F)c3)nn2)[C@@H](O)[C@@H](CO)O[C@@H]1CC1=NOC2(CCC(C(C)C)CC2)C1 (stereo partly drawn) [Example 1.25, (2R,3R,4S,5R,6R)-2-(hydroxymethyl)-6-((8-isopropyl-1-oxa-2-azaspiro[4.5]dec-2-en-3-yl)methyl)-5-methoxy-4-(4-(3,4,5-trifluorophenyl)-1H-1,2,3-triazol-1-yl)tetrahydro-2H-pyran-3-ol] | 11100 nM | 1300 nM |
| CO[C@@H]1[C@@H](n2cc(-c3ccc(C)c(F)c3F)nn2)[C@@H](O)[C@@H](CO)O[C@@H]1CC1=NOC2(CCC(F)(F)CC2)C1 [Example 1.26, (2R,3R,4S,5R,6R)-6-((8,8-difluoro-1-oxa-2-azaspiro[4.5]dec-2-en-3-yl)methyl)-4-(4-(2,3-difluoro-4-methylphenyl)-1H-1,2,3-triazol-1-yl)-2-(hydroxymethyl)-5-methoxytetrahydro-2H-pyran-3-ol] | 4000 nM | 110 nM |
| CO[C@@H]1[C@@H](n2cc(-c3cc(F)c(F)c(F)c3)nn2)[C@@H](O)[C@@H](CO)O[C@@H]1CC1=NO[C@]2(CC[C@H](C(C)C)CC2)C1 [Example 1.27, (2R,3R,4S,5R,6R)-2-(hydroxymethyl)-6-(((5r,8R)-8-isopropyl-1-oxa-2-azaspiro[4.5]dec-2-en-3-yl)methyl)-5-methoxy-4-(4-(3,4,5-trifluorophenyl)-1H-1,2,3-triazol-1-yl)tetrahydro-2H-pyran-3-ol] | 18800 nM | 1100 nM |
| CO[C@@H]1[C@@H](n2cc(-c3cc(F)c(F)c(F)c3)nn2)[C@@H](O)[C@@H](CO)O[C@@H]1CC1=NO[C@]2(CC[C@@H](C(C)C)CC2)C1 [Example 1.28, (2R,3R,4S,5R,6R)-2-(hydroxymethyl)-6-(((5s,8S)-8-isopropyl-1-oxa-2-azaspiro[4.5]dec-2-en-3-yl)methyl)-5-methoxy-4-(4-(3,4,5-trifluorophenyl)-1H-1,2,3-triazol-1-yl)tetrahydro-2H-pyran-3-ol] | 6900 nM | 2000 nM |
| CO[C@@H]1[C@@H](n2cc(-c3cc(F)c(F)c(F)c3)nn2)[C@@H](O)[C@@H](CO)O[C@@H]1CC1=NOC2(CCC(C)(C)CC2)C1 [Example 1.29, (2R,3R,4S,5R,6R)-6-((8,8-dimethyl-1-oxa-2-azaspiro[4.5]dec-2-en-3-yl)methyl)-2-(hydroxymethyl)-5-methoxy-4-(4-(3,4,5-trifluorophenyl)-1H-1,2,3-triazol-1-yl)tetrahydro-2H-pyran-3-ol] | 2200 nM | 440 nM |
| CO[C@@H]1[C@@H](n2cc(-c3cc(F)c(F)c(Cl)c3)nn2)[C@@H](O)[C@@H](CO)O[C@@H]1CC1=NOC2(CCCCC2)C1 [Example 1.31, (2R,3R,4S,5R,6R)-6-((1-oxa-2-azaspiro[4.5]dec-2-en-3-yl)methyl)-4-(4-(3-chloro-4,5-difluorophenyl)-1H-1,2,3-triazol-1-yl)-2-(hydroxymethyl)-5-methoxytetrahydro-2H-pyran-3-ol] | 970 nM | 260 nM |
| CO[C@@H]1[C@@H](n2cc(-c3cc(F)c(F)c(F)c3)nn2)[C@@H](O)[C@@H](CO)O[C@@H]1CC1=NOC2(CCC(C)(C)C2)C1 (stereo partly drawn) [Example 1.32, (2R,3R,4S,5R,6R)-6-((7,7-dimethyl-1-oxa-2-azaspiro[4.4]non-2-en-3yl)methyl)-2-(hydroxymethyl)-5-methoxy-4-(4-(3,4,5-trifluorophenyl)-1H-1,2,3-triazol-1-yl)tetrahydro-2H-pyran-3-ol] | 3400 nM | 340 nM |
| CO[C@@H]1[C@@H](n2cc(-c3cc(F)c(F)c(F)c3)nn2)[C@@H](O)[C@@H](CO)O[C@@H]1CC1=NO[C@]2(CC[C@H](C)CC2)C1 [Example 1.33, (2R,3R,4S,5R,6R)-2-(hydroxymethyl)-5-methoxy-6-(((5r,8R)-8-methyl-1-oxa-2-azaspiro[4.5]dec-2-en-3-yl)methyl)-4-(4-(3,4,5-trifluorophenyl)-1H-1,2,3-triazol-1-yl)tetrahydro-2H-pyran-3-ol] | 3700 nM | 330 nM |
